Results published in patent US20080063719A1, “Pharmaceutical Compositions” (Vectura Limited, priority 2004, published 2008).

Legend:
Assay type in all cases: physicochemical
[1] = Particle sizing of micronised and conditioned glycopyrrolate batches, Example 7; details: micronised drug powder
Method: (§1) The effect of conditioning on micronised glycopyrrolate was investigated. An initial batch of glycopyrrolate ‘A’ was micronised at 9.8 bar with feed rate of 0.2 kg/hour. This material was then conditioned on a tray at 25° C./60% RH, with or without agitation/turning. Each of these powders was sized by Sympatec. The powders were then formulated using the method outlined in Example 4, as 20 μg dose in 25 mg powder with 0.15% magnesium stearate and loaded into gelatin capsules. The fine particle fraction was assessed by firing the capsules from a Miat MonoHaler device into a multi stage liquid impinger, using the method defined in the European Pharmacopoeia 4th Edition 2002. The fine particle fraction was defined here as the mass fraction smaller than 5 μm relative to the nominal dose.
as §1, with “A second” for “The effect of conditioning on micronised glycopyrrolate was investigated. An initial”, “‘B’” for “‘A’”, “0.3” for “0.2”, “powder” for “material was then conditioned on a tray at 25° C./60% RH, with or without agitation/turning. Each of these powders”, “powder was” for “powders were”
as §1, with “A third” for “The effect of conditioning on micronised glycopyrrolate was investigated. An initial”, “glycopyrtolate ‘C’” for “glycopyrrolate ‘A’”, “0.4” for “0.2”
as §1, with “A fourth” for “The effect of conditioning on micronised glycopyrrolate was investigated. An initial”, “‘D’” for “‘A’”, “8.8” for “9.8”, “0.4” for “0.2”, “powder” for “material was then conditioned on a tray at 25° C./60% RH, with or without agitation/turning. Each of these powders”, “powder was” for “powders were”
as §1, with “A fifth” for “The effect of conditioning on micronised glycopyrrolate was investigated. An initial”, “‘E’” for “‘A’”, “7.8” for “9.8”, “0.4” for “0.2”
(§2) Batches A1, C1 and E1 were not conditioned. Batches A2, C2 and E2 were conditioned at 25° C./60% RH and batches A3, C3 and E3 were conditioned at 25° C./60% RH with turning.

[2] = MSLI test of formulations made from micronisation trial batches, Example 7; details: 20 μg dose in 25 mg powder, 0.15% magnesium stearate, gelatin capsules
Method: as §1
as §1, with “A second” for “The effect of conditioning on micronised glycopyrrolate was investigated. An initial”, “‘B’” for “‘A’”, “0.3” for “0.2”, “powder” for “material was then conditioned on a tray at 25° C./60% RH, with or without agitation/turning. Each of these powders”, “powder was” for “powders were”
as §1, with “A third” for “The effect of conditioning on micronised glycopyrrolate was investigated. An initial”, “glycopyrtolate ‘C’” for “glycopyrrolate ‘A’”, “0.4” for “0.2”
as §1, with “A fourth” for “The effect of conditioning on micronised glycopyrrolate was investigated. An initial”, “‘D’” for “‘A’”, “8.8” for “9.8”, “0.4” for “0.2”, “powder” for “material was then conditioned on a tray at 25° C./60% RH, with or without agitation/turning. Each of these powders”, “powder was” for “powders were”
as §1, with “A fifth” for “The effect of conditioning on micronised glycopyrrolate was investigated. An initial”, “‘E’” for “‘A’”, “7.8” for “9.8”, “0.4” for “0.2”
as §2

[3] = Sympatec sizing of micronised glycopyrrolate batches, after micronisation and on storage; details: for Sympatec sizing d10 / Sympatec sizing d50 / Sympatec sizing d90: following micronisation
Excerpt: (§3) Batches of micronised glycopyrrolate were obtained and, following sealed storage for several weeks, the physical changes of the material from fine cohesive powders to solid agglomerates were observed.
(§4) The following section summarises the tests conducted on reported batches of glycopyrrolate received following micronisation: […]

[4] = DVS (dynamic vapour sorption) moisture sorption analysis
Excerpt: 100% amorphous glycopyrrolate was obtained by lyophilisation.

[5] = Loss on drying and water activity of micronised batches
Excerpt: as §4

[6] = Observation of bulk powder after sealed storage; details: sealed storage for several weeks
Excerpt: as §3, §4

Structure (SMILES)	D10 [1] [μm]	D50 [1] [μm]	D90 [1] [μm]	% FPD ([2]; T = 0) [%]	MMAD ([2]; T = 0) [μm]	% FPD ([2]; T = 2 wks) [%]	MMAD ([2]; T = 2 wks) [μm]	Sympatec sizing d10 [3] [μm]	Sympatec sizing d50 [3] [μm]	Sympatec sizing d90 [3] [μm]	DVS finding (crystalline or amorphous material) [4]	Loss on drying [5] [%]	state of bulk powder on storage [6]	d50 on repeated particle sizing ([3]; on storage) [μm]	Water activity [5] [% RH]	hygroscopicity ([4]; obtained by lyophilisation, confirmed by DVS at RH>0%)
C[N+]1(C)CCC(OC(=O)C(O)(c2ccccc2)C2CCCC2)C1.[Br-] (stereo not drawn) [Batch A]	–	–	–	–	–	–	–	0.7	1.8	3.6	crystalline material	0.7	soft lumps	–	–	–
C[N+]1(C)CCC(OC(=O)C(O)(c2ccccc2)C2CCCC2)C1.[Br-] (stereo not drawn) [Formulation A3]	1.24	4.03	9.78	34.5	2.8	31.5	3.1	–	–	–	–	–	–	–	–	–
C[N+]1(C)CCC(OC(=O)C(O)(c2ccccc2)C2CCCC2)C1.[Br-] (stereo not drawn) [Batch C]	–	–	–	–	–	–	–	0.8	2.3	4.8	amorphous material was present	0.4	large hard lumps	51	–	–
C[N+]1(C)CCC(OC(=O)C(O)(c2ccccc2)C2CCCC2)C1.[Br-] (stereo not drawn) [Remicronised Batch C]	–	–	–	–	–	–	–	1.0	2.4	4.5	–	0.5	only soft lumps	–	–	–
C[N+]1(C)CCC(OC(=O)C(O)(c2ccccc2)C2CCCC2)C1.[Br-] (stereo not drawn) [Batch B]	–	–	–	–	–	–	–	1.0	2.4	4.8	amorphous material was present	0.6	large hard lumps	–	54	–
C[N+]1(C)CCC(OC(=O)C(O)(c2ccccc2)C2CCCC2)C1.[Br-] (stereo not drawn) [Formulation A1]	0.81	1.95	3.68	34.7	2.8	30.5	3.2	–	–	–	–	–	–	–	–	–
C[N+]1(C)CCC(OC(=O)C(O)(c2ccccc2)C2CCCC2)C1.[Br-] (stereo not drawn) [Formulation A2]	1.22	3.89	10.02	–	–	–	–	–	–	–	–	–	–	–	–	–
C[N+]1(C)CCC(OC(=O)C(O)(c2ccccc2)C2CCCC2)C1.[Br-] (stereo not drawn) [amorphous glycopyrrolate]	–	–	–	–	–	–	–	–	–	–	–	–	–	–	–	very hygroscopic

Now from value to molecule:

D10 [1] [μm]	D50 [1] [μm]	D90 [1] [μm]	% FPD ([2]; T = 0) [%]	MMAD ([2]; T = 0) [μm]	% FPD ([2]; T = 2 wks) [%]	MMAD ([2]; T = 2 wks) [μm]	Sympatec sizing d10 [3] [μm]	Sympatec sizing d50 [3] [μm]	Sympatec sizing d90 [3] [μm]	DVS finding (crystalline or amorphous material) [4]	Loss on drying [5] [%]	state of bulk powder on storage [6]	d50 on repeated particle sizing ([3]; on storage) [μm]	Water activity [5] [% RH]	hygroscopicity ([4]; obtained by lyophilisation, confirmed by DVS at RH>0%)	Structure (SMILES)
0.95	2.41	4.83	39.9	3.9	35.5	4.0	–	–	–	–	–	–	–	–	–	C[N+]1(C)CCC(OC(=O)C(O)(c2ccccc2)C2CCCC2)C1.[Br-] (stereo not drawn) [Formulation C1]
1.23	3.79	7.85	38.7	3.2	32.7	3.7	–	–	–	–	–	–	–	–	–	C[N+]1(C)CCC(OC(=O)C(O)(c2ccccc2)C2CCCC2)C1.[Br-] (stereo not drawn) [Formulation E3]
1.24	3.76	7.84	39.2	3.3	34.0	3.6	–	–	–	–	–	–	–	–	–	C[N+]1(C)CCC(OC(=O)C(O)(c2ccccc2)C2CCCC2)C1.[Br-] (stereo not drawn) [Formulation C2]
1.01	2.47	4.88	39.9	3.3	33.3	3.4	–	–	–	–	–	–	–	–	–	C[N+]1(C)CCC(OC(=O)C(O)(c2ccccc2)C2CCCC2)C1.[Br-] (stereo not drawn) [Formulation E1]
1.28	3.61	7.08	–	–	–	–	–	–	–	–	–	–	–	–	–	C[N+]1(C)CCC(OC(=O)C(O)(c2ccccc2)C2CCCC2)C1.[Br-] (stereo not drawn) [Formulation E2]
1.24	3.97	8.23	39.9	3.2	37.9	3.4	–	–	–	–	–	–	–	–	–	C[N+]1(C)CCC(OC(=O)C(O)(c2ccccc2)C2CCCC2)C1.[Br-] (stereo not drawn) [Formulation C3]
